Assay results: patent publication US9234050B2, “Chitosan derivatives to treat animals or optimize animal health” (priority 2008, dated 2016)
Where two headings read alike, the source gives them in different places. Where a SMILES comes first, the peptide text is derived from it. Bridges are numbered along the chain shown (N, C = ends). [ ]: non-standard residue; d: D form. The star is where a group is joined. Ileψ(thiazoline)Cys = CC[C@H](C)[C@H](N)C1=N[C@H](C(=O)*)CS1; dOrn = NCCC[C@@H](N)C(=O)O

Columns and labels:
[1] = tested on: C. perfringens (ATCC 12919); assay type: cell-based
[2] = tested on: S. enterica (ATCC 700720)
[3] = tested on: P. multocida (ATCC 11039); details: for Bacitracin (log reduction alone): BAC 32 μg/mL
[4] = Poultry study in feed (weight gain); assay type: in vivo, chicks; details: dosage 55 mg/kg in feed; treated feed fed for 8 days
Text: Various doses of two different functionalized chitosan-arginines were mixed in feed, both originally 84% degree of deacetylation. “10% functionalized” has a MW of 39 kDa, 12% functionalized, % DDA=82 and polydispersity index (PDI) of 1.5. “30% functionalized” has a MW of 27 kDa, 26% functionalized, % DDA=82 and polydispersity index (PDI) of 1.7. Dosing of feed may be irregular due to challenges in mixing extremely small quantities of material uniformly (sprayed on cornmeal from water solution, mixed with feedmeal). Twelve replicate pens of five chicks were used for each treatment. Treated feed was fed for 8 days, and weight gain and feed conversion were examined after 21 days (comparison with day 1). Awt21 is the average weight gain after 21 days and P Diff is the statistical P value between the measured and control.

Which “Tetracycline (log reduction alone)” value ([1]; Assay 1, TET 0.05 μg/mL) does the source give for `CN(C)[C@@H]1C(O)=C(C(N)=O)C(=O)[C@@]2(O)C(O)=C3C(=O)c4c(O)cccc4[C@@](C)(O)[C@H]3C[C@@H]12` [Tetracycline] here?
Its value is 0.1 log.

What about the “Tetracycline (log reduction alone)” value ([1]; Assay 2, TET 0.2 μg/mL) of the same compound?
The value was 0.1 log.

Which results are given for `CC[C@H](C)[C@H](N)C1=N[C@H](C(=O)N[C@@H](CC(C)C)C(=O)N[C@H](CCC(=O)O)C(=O)N[C@H](C(=O)N[C@H]2CCCCNC(=O)[C@H](CC(N)=O)NC(=O)[C@@H](CC(=O)O)NC(=O)[C@H](Cc3cnc[nH]3)NC(=O)[C@@H](Cc3ccccc3)NC(=O)[C@H]([C@@H](C)CC)NC(=O)[C@@H](CCCN)NC2=O)[C@@H](C)CC)CS1` [Bacitracin] ({Ileψ(thiazoline)Cys}-L[dE]IK[dOrn]I[dF]H[dD]N; lactam 4-C)?
Bacitracin (log reduction alone) ([2]; Assay 1, BAC 4 μg/mL): 0.08 log; Bacitracin (log reduction alone) ([2]; Assay 1, BAC 8 μg/mL): 0.08 log; Bacitracin (log reduction alone) ([2]; Assay 2, BAC 2 μg/mL): 0.2 log; Bacitracin (log reduction alone) ([2]; Assay 2, BAC 4 μg/mL): 0 log; Bacitracin (log reduction alone) ([3]; Assay 1): 0 log; Bacitracin (log reduction alone) ([3]; Assay 2): 0.2 log; bactericidal concentration ([3]; P. multocida (ATCC 11039)): > 128 µg/mL

For Penicillin, which “Awt21 (average weight gain after 21 days)” value [4] is on record?
The value was 0.852 kg.
